# According to publication PMC8154566, “Scaffold-Hopping Strategy on a Series of Proteasome Inhibitors Led to a Preclinical Candidate for the Treatment of Visceral Leishmaniasis” (Journal of Medicinal Chemistry, 2021):
# Read-outs that look alike come from different tables or passages of the source.
# Tests used:
# [1] = tested on: L. donovani amastigotes; experiment: INMAC assay: intramacrophage L. donovani in differentiated THP-1 cells; type: cell-based, Leishmania donovani; conditions: for EC50: THP-1, at least three replicates, SD ≤0.4
# Method: (§1) Intramacrophage L. donovani Assay. This assay was conducted as previously described, except for […]
# [2] = tested on: THP-1 cells; experiment: THP-1 host cell read-out of the INMAC assay; type: cell-based; conditions: Homo sapiens
# Method: as §1
# [3] = FaSSIF (fasted state simulated intestinal fluid) solubility; type: physicochemical
# Method: (§2) Intramacrophage L. donovani Assay. This assay was conducted as previously described, except for compound exposure time, which was 96 h instead of 72 h.4
# (§3) Intrinsic Clearance. This assay was conducted as previously described.5 Aqueous Solubility. This assay was conducted as previously described.6
# (§4) FaSSIF Solublity. This assay was conducted as previously described.5,7
# (§5) In vivo Mouse Efficacy Studies. In vivo studies were carried out as previously described, with minor modifications.7 Briefly: Control drug used was Miltefosine (30 mg/kg orally, twice daily for 5 days), vehicle used was 10% (v/v) dimethyl sulfoxide (DMSO), 40% polyethylene glycol 400, and 50% deionized water (10 Ml/kg orally, twice daily for 5 days) and mice were treated with test compound intraperitoneally (50 mg/kg twice daily for 5 days). 5
# (§6) All regulated procedures on living animals were carried out under the authority of a project license issued by the Home Office under the Animals (Scientific Procedures) Act 1986, as amended in 2012 (and in compliance with EU Directive EU/2010/63). Infected animals had access to food and water ad libitum and were housed under a 12 hour light/dark photoperiod. Animals used in these experiments were female NMRI and Balb/c mice (Harlan, UK).
# (§7) Test compound DDD01008714 was dosed orally (P.O.) at 10 mg free base/kg (dose volume 10 mL/kg; dose vehicle: 10% (vol/vol) dimethyl sulfoxide (DMSO), 40% polyethylene glycol 400 (PEG400) and 50% deionized water) to female NMRI mice (n = 3) or intravenously (I.V.) at 3 mg free base/kg (dose volume 5 mL/kg; dose vehicle: 10% (vol/vol) dimethyl sulfoxide (DMSO) and 90% Saline) to female Balb/c mice (n = 3). Blood samples (10 μL) where taken from the tail vein of […]
# [4] = Kinetic aqueous solubility by CLND; type: physicochemical
# Method: We had successfully used these criteria in the hit to lead stage to identify compounds for in vivo proof-of-concept studies in another program, which subsequently led to the identification of preclinical candidate DDD853651/GSK3186899 active against CRK12.[7] […] A pharmacokinetic (PK) study was thus performed, dosed at 10 mg/kg po and 3 mg/kg iv. […] With the limited knowledge of the PK/PD drivers for the treatment of VL, we considered this to be a suitable profile for the progression of 4 into a previously reported mouse efficacy model of VL,[6],[7],[17],[18] where it was dosed twice daily at 50 mg/kg ip in order to further maximize exposure and give the best chance of achieving proof-of-concept.
# as §2, §3, §4, §5, §6, §7
# [5] = Mouse liver microsomal intrinsic clearance; type: in vitro ADME; conditions: for Mouse CLi: mouse liver microsomes; for Cli (mouse, ml/min/g): supplementary csv
# Method: as §2, §3, §4, §5, §6, §7
# [6] = Leishmania donovani, Table 5, read-out: INMAC pEC50 (converted)
# [7] = THP-1, Table 5, read-out: THP-1 pEC50 (converted)
# [8] = THP-1, supplementary csv, read-out: THP1 pIC50 (converted)
# [9] = Table 5, kinetic, CLND, read-out: Aq. solubility
# [10] = Leishmania donovani, Table 6, read-out: INMAC pEC50 (converted)
# [11] = THP-1, Table 6, read-out: THP-1 pEC50 (converted)
# [12] = Table 6, kinetic, CLND, read-out: Aq. solubility
# [13] = supplementary csv, read-out: Aqueous Solubility
# [14] = THP-1, read-out: THP1 pIC50 (converted)
SMILES,"EC50 [1, 6]","EC50 [2, 7]","IC50 [2, 8]","solubility at 4 h ([3]; pH 6.5, Table 5)","solubility [4, 9]",Mouse CLi ([5]; Table 5),"Cli (mouse, ml/min/g) [5]","EC50 [1, 10]","EC50 [2, 11]","solubility at 4 h ([3]; pH 6.5, Table 6)",solubility ([3]; supplementary csv),"solubility [4, 12]","solubility [4, 13]",Mouse CLi ([5]; Table 6),further results
"O=C(Nc1ccc(F)c(-c2cc3cc(N4CCOCC4)cnc3o2)c1)N1CCCC1 [Compound 20, N-(4-Fluoro-3-(5-morpholinofuro[2,3-b]pyridin-2-yl)phenyl)pyrrolidine-1-carboxamide]",50.1 nM,> 50.1 µM,> 50.1 µM,7 µM,25 µM,4.0 mL/min/g,4 mL/min/g,,,,,,,,
"O=C(Nc1ccc(F)c(-c2ccn3c(N4CCC5(CCOC5)C4)cnc3n2)c1)N1CCCC1 (stereo not shown) [Compound 44, N-(3-(3-(2-Oxa-7-azaspiro[4.4]nonan-7-yl)imidazo[1,2-a]pyrimidin-7-yl)-4-fluorophenyl)pyrrolidine-1-carboxamide]",,,50.1 µM,,,,3.7 mL/min/g,1260 nM,50.1 µM,852 µM,850 µM,339 µM,340 µM,3.7 mL/min/g,
"O=C(Nc1ccc(F)c(-c2nc3ncc(N4CCOCC4)cn3n2)c1)N1CCCC1 [Compound 25, N-(4-Fluoro-3-(6-morpholino-[1,2,4]triazolo[1,5-a]pyrimidin-2-yl)phenyl)pyrrolidine-1-carboxamide]",631 nM,> 50.1 µM,,74 µM,354 µM,<0.5 mL/min/g,0.5 mL/min/g,,,,73 µM,,400 µM,,"IC50 [2, 14]: > 50.1 µM"
"O=C(Nc1cnnc(-c2cn3cc(N4CCOCC4)cnc3n2)c1)N1CCCC1 [Compound 13, N-(6-(6-Morpholinoimidazo[1,2-a]pyrimidin-2-yl)pyridazin-4-yl)pyrrolidine-1-carboxamide]",,,> 50.1 µM,,,,<0.5 mL/min/g,,,,290 µM,,360 µM,,"loss of potency ([1]; INMAC, relative to compound 4): > 10 fold; IC50 ([1]; Leishmania donovani, THP-1, read-out: LdInMac pIC50 (converted)): > 50.1 µM; EC50 ([1]; Leishmania donovani, Table 2, read-out: INMAC (pEC50) (converted)): > 50100 nM; EC50 ([2]; THP-1, Table 2, read-out: THP-1 (pEC50) (converted)): > 50.1 µM; solubility ([3]; Table 2): > 100 µM; solubility at 4 h ([3]; pH 6.5, Table 2): 286 µM; solubility ([4]; Table 2, kinetic, CLND, read-out: Aq. solubility): 355 µM; Mouse CLi ([5]; Table 2): <0.5 mL/min/g"
"C[C@@H]1CN(c2cnc3nc(-c4cc(NC(=O)N5CCCC5)ccc4F)ccn23)C[C@H](C)O1 [Compound 41, N-(3-(3-((2S,6R)-2,6-Dimethylmorpholino)imidazo[1,2-a]pyrimidin-7-yl)-4-fluorophenyl)pyrrolidine-1-carboxamide]",,,,,,,3.4 mL/min/g,1580 nM,63.1 µM,372 µM,365 µM,142 µM,170 µM,3.4 mL/min/g,"IC50 [2, 14]: 63.1 µM"
"O=C(Nc1ccc(F)c(-c2ccn3c(-c4ccccn4)cnc3n2)c1)N1CCCC1 [Compound 29, N-(4-Fluoro-3-(3-(pyridin-2-yl)imidazo[1,2-a]pyrimidin-7-yl)phenyl)pyrrolidine-1-carboxamide]",,,> 50.1 µM,,,,1.8 mL/min/g,398 nM,> 50.1 µM,273 µM,270 µM,74 µM,,1.8 mL/min/g,
"O=C(Nc1ccc(F)c(-c2cc3cc(N4CCOCC4)cnn3n2)c1)N1CCCC1 [Compound 26, N-(4-Fluoro-3-(5-morpholinopyrazolo[1,5-b]pyridazin-2-yl)phenyl)pyrrolidine-1-carboxamide]",158 nM,> 50.1 µM,> 50.1 µM,12 µM,51 µM,1.7 mL/min/g,1.7 mL/min/g,,,,,,,,
